Measurements published in patent publication US20130310256A1, “HERBICIDAL COMPOSITIONS COMPRISING 4-AMINO-3-CHLORO-5-FLUORO-6-(4-CHLORO-2-FLUORO-3-METHOXYPHENYL) PYRIDINE-2-CARBOXYLIC ACID OR A DERIVATIVE THEREOF AND VLCFA AND LIPID SYNTHESIS INHIBITING HERBICIDES” (DOW AGROSCIENCES LLC, priority 2008, published 2013).
“And” between values parts separate entries of the source, which are not always exact repeats. Equal entries are not always repeated.

Legend:
ECHCO = test: Example I: postemergence foliar-applied weed control, greenhouse; type: in vivo, Echinochloa colona (L.) Link (junglerice); settings: for Visual Weed Control Obs: 20 DAA
Method in brief: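 Plants grown in loam/sandy loam–calcareous grit soil (80:20) in greenhouse, 14 hr photoperiod, about 29° C. day/26° C. night, treated postemergence at first to fourth true leaf stage. Foliar spray at 187 L/ha with 1.25% (v/v) crop oil concentrate; Compound A dosed on acid equivalent basis, partners on active ingredient basis.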

POLHP = test: Example V: field trial, in-water application to transplanted rice, Niigata, Japan; type: in vivo, Polygonum hydropiperoides; settings: 31 DAA, submerged weeds
Protocol: Post and pre-emergence field trials were conducted in Niigata, Japan. Trial sites were located in commercially grown fields of transplanted rice (Oryza sativa, variety: Koshihikari) using standard herbicide small plot research methodology. The trial plot size was 2 meters (m)×2 m with 3 replications. The nursery plants were grown in the greenhouse using practical methods and transplanted into the field at the 2.5-leaf stage on May 7, 2012. The row and in-row spaces were 30 cm and 17 cm, respectively. The crop was grown using normal cultural practices for fertilization, water management and maintenance to ensure good growth of the crop and the weeds.
Treatments consisted of the benzyl ester of 4-amino-3-chloro-5-fluoro-6-(4-chloro-2-fluoro-3-methoxyphenyl)pyridine-2-carboxylic acid (Compound A) formulated as an SC (suspension concentrate) and various herbicidal components alone and in combination. Compound A benzyl ester was applied on an active ingredient basis. […]
Compound A benzyl ester SC was once diluted in 100 mL water in the 200 mL bottle/plot to achieve the desired rates and applied by water injection. […] Visual weed control was scored on a scale of 0 to 100 percent where 0 corresponds to no injury and 100 corresponds to complete kill. […]

SCPJU = test: Example I: postemergence foliar-applied weed control, greenhouse; type: in vivo, Schoenoplectus juncoides (Roxb.) Palla (Japanese bulrush)

CCS(=O)(=O)Oc1ccc2c(c1)C(C)(C)CO2 [Benfuresate, 2,3-dihydro-3,3-dimethyl-5-benzofuranyl ethanesulfonate]
Visual Weed Control (%) - 22 DAA ECHCO Obs (ECHCO; 75 gai/ha, foliar): 0% | Visual Weed Control (%) - 22 DAA ECHCO Obs (ECHCO; 150 gai/ha, foliar): 0% | Visual Weed Control (%) - 22 DAA ECHCO Obs (ECHCO; 300 gai/ha, foliar): 0% | Visual Weed Control POLHP Obs (POLHP; 600 gai/ha): 94.3%

CCN(CC)C(=O)n1cnc(S(=O)(=O)c2c(C)cc(C)cc2C)n1 [Cafenstrole, N,N-diethyl-3-[(2,4,6-trimethylphenyl)sulfonyl]-1H-1,2,4-triazole-1-carboxamide]
Visual Weed Control (%) - 21 DAA SCPJU Obs (SCPJU; 26.25 gai/ha): 0% | Visual Weed Control (%) - 21 DAA SCPJU Obs (SCPJU; 52.5 gai/ha): 0% | Visual Weed Control (%) - 21 DAA SCPJU Obs (SCPJU; 105 gai/ha): 0% | Visual Weed Control Obs (ECHCO; 26.25 gai/ha Himeadow WP): 10% | Visual Weed Control Obs (ECHCO; 52.5 gai/ha Himeadow WP): 10% | Visual Weed Control Obs (ECHCO; 105 gai/ha Himeadow WP): 10%

COc1c(Cl)ccc(-c2nc(C(=O)O)c(Cl)c(N)c2F)c1F [Compound A Acid, 4-amino-3-chloro-6-(4-chloro-2-fluoro-3-methoxyphenyl)-5-fluoropyridine-2-carboxylic acid]
Visual Weed Control (%) - 22 DAA ECHCO Obs (ECHCO; 5.3 gae/ha, foliar): 65% | Visual Weed Control (%) - 22 DAA ECHCO Obs (ECHCO; 10.6 gae/ha, foliar): 65% | Visual Weed Control Obs (ECHCO; 4.38 gae/ha): 65% and 40% and 70% | Visual Weed Control Obs (ECHCO; 8.75 gae/ha): 85% and 60%

COc1c(Cl)ccc(-c2nc(C(=O)OCc3ccccc3)c(Cl)c(N)c2F)c1F [Compound A Benzyl Ester, benzyl ester of 4-amino-3-chloro-5-fluoro-6-(4-chloro-2-fluoro-3-methoxy-phenyl)pyridine-2-carboxylic acid]
Visual Weed Control (%) - 21 DAA SCPJU Obs (SCPJU; 4.38 gae/ha): 40% | Visual Weed Control (%) - 22 DAA ECHCO Obs (ECHCO; 5.3 gae/ha, foliar): 30% | Visual Weed Control (%) - 19 DAA ECHCO Obs (ECHCO; 8 gae/ha, foliar): 65% | Visual Weed Control (%) - 20 DAA ECHCO Obs (ECHCO; 8 gae/ha, foliar): 40% | Visual Weed Control (%) - 22 DAA ECHCO Obs (ECHCO; 10.6 gae/ha, foliar): 55% | Visual Weed Control (%) - 20 DAA ECHCO Obs (ECHCO; 16 gae/ha, foliar): 60% | Visual Weed Control Obs (ECHCO; 4.38 gae/ha): 60% | Visual Weed Control Obs (ECHCO; 8.75 gae/ha): 85% and 70% | Visual Weed Control (%) - 20 DAA ECHCO Obs (ECHCO; 32 gae/ha, foliar): 90% | Visual Weed Control POLHP Obs (POLHP; 100 gai/ha): 68.3%

CCCOCCN(C(=O)CCl)c1c(CC)cccc1CC [Pretilachlor, 2-chloro-N-(2,6-diethylphenyl)-N-(2-propoxyethyl)acetamide]
Visual Weed Control Obs (ECHCO; 37.5 gai/ha): 0% | Visual Weed Control Obs (ECHCO; 75 gai/ha): 0% | Visual Weed Control Obs (ECHCO; 150 gai/ha): 0%
